Where two headings read alike, the source gives them in different places.
Columns and labels:
[1] = Passive membrane permeability through PAMPA artificial membrane, pH 7.4; type: in vitro ADME; conditions: pH 7.4, 10 μmol, 20 hours at room temperature, mean of multiple measurements, read-out: PAMPA passive permeability Pe
Description: Passive membrane permeability of the compounds described in the present invention was determined using the PAMPA (parallel artificial membrane permeability assay) model at pH 7.4.
We used a 96-well plate (Corning® BioCoat® Pre-coated PAMPA Plate System, order no. 353015), composed of acceptor and donor parts with cell membrane-modeling PVDF filter pre-impregnated with a lecithin-phospholipid bilayer. The substance (at a concentration of 10 μmol) in a 0.01 M phosphate buffer with pH 7.4 was introduced into a donor well of the plate, and pure buffer was introduced into an acceptor well; afterwards, the both parts were combined and incubated for 20 hours at room temperature so that the compound was redistributed between the two wells and the membrane. Verapamil (USP, USA, order no. 1711202) and propranolol (MCE LLC, USA, cat. no. HY-B0573/CS-2680) were used as control compounds with high and medium permeability. Samples were analyzed by reversed-phase HPLC with UV detection (Agilent 1260 chromatograph with UV detector) by determining their peak areas in the donor and acceptor wells.
Permeability (Pe, cm/s) and retention factor (R, %) in the lipid bilayer were calculated using the formula:
[formula] [formula] • Co is donor-well concentration of the substance at the initial moment of time t (μM); • CA (t) is acceptor-well concentration of the substance at time t (μM); • Vd is donor-well volume (0.3 ml); • Va is acceptor-well volume (0.15 ml).
[formula] • A is filter area (0.3 cm^2); • t is incubation time (72000 s);

[2] = test system: NCl-H82 (small cell lung cancer); assay: Antiproliferative assay on NCl-H82 cells (AlamarBlue, 120 h); type: cell-based; conditions: mean value from several measurements
Description: The antiproliferative activity of CDK7 inhibitors according to the present invention was evaluated in a cell test using continuous cell cultures: MDA-MB-468 (triple negative breast cancer, ATCC® HTB-132™) and NCl-H82 (small cell lung cancer, ATCC® HTB-175™) using a viable AlamarBlue dye (Thermo Fisher Scientific Inc, order no. DAL1100). The cells were grown in DMEM (PanEco, order no. C330π) and RPMI-1640 (PanEco, order no. C330π), respectively. The basal growth medium was enriched with L-glutamine at a concentration of 2 mM (PanEco, order no. Φ032) and 10% fetal bovine serum (Gibco, order no. 16140-071). The night before measurement, MDA-MB-468 adherent cells were detached from plastic with a solution of trypsin-EDTA (PanEco, order no. Π039π), the solution was then inactivated by a DMEM complete medium, centrifuged at 1000 RPM (Eppendorf, 5804 R), a suspension of cells was prepared in a DMEM complete medium, introduced into 96-well culture plates (Corning Inc, order no. 3599) at 8×10^3 cells in 100 μl of medium per well. The next day, test compounds were dissolved in DMSO and diluted with a DMEM complete medium to a final concentration ranging from 50 μM to 10 pM. Diluted compounds in a volume of 50 μl were introduced into the plate wells with cells in triplicates (the final concentration of DMSO was no more than 1%) and incubated at 37° C. in an incubator with 5% CO2 for 96 hours. NCl-H82 suspension cell line was prepared on the day of the analysis. 10×10^3 cells in 100 μl of an RPMI-1640 complete medium were added to each well of a 96-well plate. The procedure for sample dilution is as described above. Cells with test compounds were incubated at 37° C. in an incubator with 5% CO2 for 120 hours. Following incubation, […] of AlamarBlue reagent (Thermo Fisher Scientific Inc., order no. DAL1100) was added to the wells, the contents of the plates were stirred in an orbital shaker (Biosan, Latvia), then further incubated for 5.5-6 hours at 37° C. in an incubator with 5% CO2. The number of viable cells was detected using the Infinite M200Pro microplate spectrophotometer (Tecan Group Ltd, Switzerland) by way of measuring a fluorescent signal at an excitation wavelength (λEx) of 540 nm and an emission wavelength (λEm) of 590 nm.
IC50 value was calculated using the Magellan software (Tecan Group Ltd, Switzerland) by approximating experimental points by four-parameter model with the optimization by Levenberg-Marquardt: […]

[3] = biological target: CDK9/Cyclin K (Homo sapiens, UniProt P50750); assay: Inhibition of CDK9/Cyclin K kinase activity (ADP-Glo); type: biochemical
Sequence of CDK9/Cyclin K (P50750 whole entry): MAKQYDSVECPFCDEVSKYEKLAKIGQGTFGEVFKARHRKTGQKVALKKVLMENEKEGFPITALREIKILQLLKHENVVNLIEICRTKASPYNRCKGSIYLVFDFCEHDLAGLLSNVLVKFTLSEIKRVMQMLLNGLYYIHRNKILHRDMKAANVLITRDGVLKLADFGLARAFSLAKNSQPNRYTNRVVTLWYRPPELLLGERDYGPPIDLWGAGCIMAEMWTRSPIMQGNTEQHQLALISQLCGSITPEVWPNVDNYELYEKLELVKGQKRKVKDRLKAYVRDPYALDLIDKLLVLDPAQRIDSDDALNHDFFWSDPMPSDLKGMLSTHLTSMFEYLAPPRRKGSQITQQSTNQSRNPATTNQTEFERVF
Sequence of CDK9/Cyclin K (O75909 whole entry partner): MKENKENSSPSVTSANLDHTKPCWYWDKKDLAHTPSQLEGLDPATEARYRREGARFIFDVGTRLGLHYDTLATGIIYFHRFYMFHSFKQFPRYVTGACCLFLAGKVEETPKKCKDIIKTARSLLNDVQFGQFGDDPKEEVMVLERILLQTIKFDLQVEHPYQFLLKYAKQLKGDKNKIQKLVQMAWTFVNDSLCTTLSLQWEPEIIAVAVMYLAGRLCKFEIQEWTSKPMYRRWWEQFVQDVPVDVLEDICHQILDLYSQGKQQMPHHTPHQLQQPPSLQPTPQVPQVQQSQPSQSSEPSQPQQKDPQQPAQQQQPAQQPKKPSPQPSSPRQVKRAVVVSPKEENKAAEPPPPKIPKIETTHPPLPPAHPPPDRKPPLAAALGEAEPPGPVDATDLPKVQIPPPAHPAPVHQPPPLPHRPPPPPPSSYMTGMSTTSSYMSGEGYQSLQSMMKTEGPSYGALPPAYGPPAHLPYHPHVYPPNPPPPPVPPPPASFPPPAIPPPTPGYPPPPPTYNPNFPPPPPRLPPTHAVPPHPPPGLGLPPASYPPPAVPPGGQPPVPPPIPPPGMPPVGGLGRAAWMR
Outline: (§1)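 Kinase preincubated with compound (11 points, 4-fold steps from 50 μM) for 10 minutes at 25° C. in kinase buffer A with DTT, then reacted 40-60 minutes at 25° C. with ATP and CDKtide, Histone H1 or PDKtide substrate. ADP formation read by ADP-Glo luminescence; IC50 from four-parameter fit.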

[4] = biological target: CDK2/Cyclin A (Homo sapiens, UniProt P24941); assay: Inhibition of CDK2/Cyclin A kinase activity (ADP-Glo); type: biochemical
Outline: as §1

[5] = test system: MDA-MB-468 (triple negative breast cancer); assay: Antiproliferative assay on MDA-MB-468 cells (AlamarBlue, 96 h); type: cell-based; conditions: Homo sapiens, mean value from several measurements
[6] = biological target: CDK7/Cyclin H/MNAT1 (Homo sapiens, UniProt P50613); assay: Inhibition of CDK7/Cyclin H/MNAT1 kinase activity (ADP-Glo); type: biochemical
Sequence of CDK7/Cyclin H/MNAT1 (P50613 whole entry): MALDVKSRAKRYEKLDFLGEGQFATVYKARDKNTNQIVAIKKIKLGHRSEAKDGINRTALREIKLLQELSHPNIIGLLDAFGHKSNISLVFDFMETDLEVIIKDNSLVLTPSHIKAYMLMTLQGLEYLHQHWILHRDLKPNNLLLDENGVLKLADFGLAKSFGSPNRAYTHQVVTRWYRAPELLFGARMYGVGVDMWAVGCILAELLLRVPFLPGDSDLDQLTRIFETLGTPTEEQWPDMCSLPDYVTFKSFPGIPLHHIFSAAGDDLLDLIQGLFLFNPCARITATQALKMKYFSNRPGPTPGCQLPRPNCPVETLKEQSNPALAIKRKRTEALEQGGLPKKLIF
Sequence of CDK7/Cyclin H/MNAT1 (P51946 whole entry partner): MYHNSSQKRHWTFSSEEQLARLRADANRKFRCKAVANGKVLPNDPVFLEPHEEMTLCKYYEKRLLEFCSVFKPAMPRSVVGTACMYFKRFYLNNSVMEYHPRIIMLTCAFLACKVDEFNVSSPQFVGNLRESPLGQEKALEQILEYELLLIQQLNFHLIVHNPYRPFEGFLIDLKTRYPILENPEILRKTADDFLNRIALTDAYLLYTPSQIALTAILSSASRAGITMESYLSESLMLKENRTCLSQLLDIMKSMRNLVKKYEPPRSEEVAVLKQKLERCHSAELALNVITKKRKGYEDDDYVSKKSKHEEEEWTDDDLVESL
Sequence of CDK7/Cyclin H/MNAT1 (P51948 whole entry partner): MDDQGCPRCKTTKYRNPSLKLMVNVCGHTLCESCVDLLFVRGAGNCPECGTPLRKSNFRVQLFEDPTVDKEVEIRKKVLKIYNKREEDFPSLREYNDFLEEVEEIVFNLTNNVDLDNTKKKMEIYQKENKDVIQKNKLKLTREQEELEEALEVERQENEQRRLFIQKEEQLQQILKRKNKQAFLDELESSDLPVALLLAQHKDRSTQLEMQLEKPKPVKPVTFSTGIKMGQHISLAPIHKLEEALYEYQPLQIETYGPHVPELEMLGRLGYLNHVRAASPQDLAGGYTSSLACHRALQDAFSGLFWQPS
Outline: as §1

[7] = General cytotoxicity on primary differentiated HepaRG cells (72 h); type: cell-based; conditions: human, general toxicity, mean value from several measurements
Outline: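 Differentiated HepaRG cells, maintained a week in basal hepatic medium with maintenance/metabolism supplement, were plated at 25×10^3 cells/well overnight. Compounds (200 μM to 0.2 nM) were added for 72 h before viability readout.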

[8] = Microsomal stability in human liver microsomes (HLM); type: in vitro ADME; conditions: 1 μM test compound
Description: The procedure for investigating the metabolism of selected compounds was carried out in microsomal fractions of the liver (of rats, mice, humans) in the presence of a phase I metabolism cofactor (NADPH).
The rate of enzymatic decomposition of the compound in liver microsomes in in vitro analysis was determined by keeping a reaction mixture comprising 0.5 mg/ml of pooled human, rat or mouse liver microsomes, 1 μM test compound, 1.5 mM […] (Carbosynth, UK, cat. no. NN108711101) and 1.5 mM magnesium chloride in 0.1 M sodium phosphate buffer (pH 7.4) in a solid-state thermostat at 37° C. (XenoTech, USA, order no. H2610, cat. no. R1000, cat. no. M1000). Incubation was carried out in three replicates.
To determine the stability of compounds under sample preparation conditions, an aliquot in two replicates with the test compound and a microsomal fraction devoid of the NADPH cofactor, which was incubated for 40 minutes at 37° C.
Reactions were stopped at 0, 10, 20, 30 and 40 min time points by way of adding an ice mixture of acetonitrile:methanol (3:1) comprising an internal standard.
Samples were then centrifuged to remove the precipitated protein, supernatants were analyzed using HPLC-MS/MS to determine in vitro clearance (CLint) of the compounds. The Agilent 6410 mass spectrometer (Agilent, USA) combined with the Agilent 1260 Infinity II HPLC liquid chromatograph (Agilent, USA) and a cooling autosampler controlled by MassHunter software (Agilent, USA) was used as an HPLC-MS/MS system. Chromatographic analysis was performed on a C18 reversed-phase HPLC column (Agilent, Waters or equivalent) in a gradient elution mode in a system of mobile phases: 0.1% formic acid in water/0.1% formic acid in acetonitrile, flow rate: 0.5 ml/min, column T=35° C. Mass spectrometric detection was performed with electrospray ionization in multiple reaction monitoring mode. Precursor ions, fragment ions and collision energies for each substance were selected experimentally.
A graph of dependence of the logarithmic ratio between substance's peak area and internal standard's peak area vs time was built. The dependent coefficient of this line corresponded to the elimination rate constant k, on the basis of which the in vitro clearance CLint was calculated:
Based on resulting in vitro clearance CLint values, the microsomal stability of the selected compounds for humans, rats and mice was concluded.

[9] = mean value from several measurements, read-out: IC50 CDK9/Cyclin K
[10] = mean value from several measurements, read-out: IC50 CDK2/Cyclin A
[11] = mean value from several measurements, read-out: IC50 CDK7/Cyclin H/MNAT

Papp at 20 h, 10 μmol [1] | IC50 [2] | IC50 [3, 9] | IC50 [4, 10] | IC50 [5] | IC50 [6, 11] | In vitro clearance CLint (HLM) [8] | IC50 ([3]; mean of multiple measurement series, ATP 50 μM, read-out: CDK9/Cyclin K IC50) | IC50 ([4]; mean of multiple measurement series, ATP 50 μM, read-out: CDK2/Cyclin A IC50) | IC50 ([6]; mean of multiple measurement series, ATP 10 μM, read-out: CDK7/Cyclin H/MNAT1 IC50) | Compound | CC50 at 72 h [7]
< 1 ×10⁻⁶ cm/s | 0.01 to 0.1 µM | 0.05 to 0.2 µM | > 0.2 µM | 0.01 to 0.1 µM | < 0.005 µM | – | – | – | – | O=C1NCCc2c(-c3nc(N[C@H]4CCCNC4)ncc3C(F)(F)F)c[nH]c21 [CDK7_814, 3-(2-{[(3S)-piperidin-3-yl]amino}-5-(trifluoromethyl)pyrimidin-4-yl)-1H,4H,5H,6H, 7H-pyrrolo[2,3-c]pyridin-7-one] | 0.5 to 2 µM
5 to 10 ×10⁻⁶ cm/s | 0.01 to 0.1 µM | > 0.2 µM | > 0.2 µM | 0.01 to 0.1 µM | 0.005 to 0.05 µM | – | – | – | – | CC1(C)CC[C@H](Nc2ncc(C(F)(F)F)c(-c3c[nH]c4c3CCCN(CC3CCCC3)C4=O)n2)CN1 [CDK7_1155, 7-(cyclopentylmeth-yl)-3-(2-{[(3S)-6,6-dimethylpiperidin-3-yl]amino}-5-(trifluoromethyl)py-rimidin-4-yl)-1H,4H,5H,6H,7H, 8H-pyrrolo[2,3-c]azepin-8-one] | > 2 µM
5 to 10 ×10⁻⁶ cm/s | 0.01 to 0.1 µM | > 0.2 µM | > 0.2 µM | 0.01 to 0.1 µM | < 0.005 µM | – | – | – | – | CC1(C)CC[C@H](Nc2ncc(C(F)(F)F)c(-c3c[nH]c4c3CCCN(C3CCCC3)C4=O)n2)CN1 [CDK7_1154, 7-cyclopentyl-3-(2-{[(3S)-6,6-dimethylpiperidin-3-yl]amino}-5-(trifluoromethyl)py-rimidin-4-yl)-1H,4H,5H,6H,7H, 8H-pyrrolo[2,3-c]azepin-8-one] | > 2 µM
– | – | > 0.2 µM | > 0.2 µM | – | 0.005 to 0.05 µM | A (Clint < 20 μl/(min · mg of protein)) | – | – | – | Cn1ccnc1N1CCCc2c(-c3nc(NC4CCCNC4)ncc3C(F)(F)F)c[nH]c2C1=O (centres unmarked) [CDK7_1177] | > 2 µM
1 to 5 ×10⁻⁶ cm/s | 0.01 to 0.1 µM | 0.005 to 0.05 µM | > 0.2 µM | 0.01 to 0.1 µM | 0.005 to 0.05 µM | – | – | – | – | FC(F)(F)c1cnc(N[C@H]2CCCNC2)nc1-c1c[nH]c(-c2nnnn2C2CC2)c1 [CDK7_1102] | 0.5 to 2 µM
< 1 ×10⁻⁶ cm/s | 0.01 to 0.1 µM | 0.005 to 0.05 µM | > 0.2 µM | < 0.01 µM | < 0.005 µM | – | – | – | – | O=c1c2[nH]cc(-c3nc(N[C@H]4CCCNC4)ncc3C(F)(F)F)c2ccn1C1CC1 [CDK7_1105, 6-cyclopropyl-3-(2-{[(3S)-piperidin-3-yl]amino}-5-(trifluoromethyl)py-rimidin-4-yl)-1H,6H,7H-pyrrolo[2,3-c]pyridin-7-one] | 0.1 to 0.5 µM
1 to 5 ×10⁻⁶ cm/s | < 0.01 µM | 0.005 to 0.05 µM | > 0.2 µM | < 0.01 µM | < 0.005 µM | – | – | – | – | O=c1c2[nH]cc(-c3nc(N[C@H]4CCCNC4)ncc3C(F)(F)F)c2ccn1-c1nccs1 [CDK7_1058, 3-(2-{[(3S)-piperidin-3-yl]amino}-5-(trifluoromethyl)py-rimidin-4-yl)-6-(1,3-thiazol-2-yl)-1H,6H,7H-pyrrolo[2,3-c]pyridin-7-one] | 0.5 to 2 µM
1 to 5 ×10⁻⁶ cm/s | 0.01 to 0.1 µM | > 0.2 µM | > 0.2 µM | 0.01 to 0.1 µM | < 0.005 µM | – | 0.76 µM | 18.6 µM | 0.0056 µM | CC1(C)CC[C@H](Nc2ncc(C(F)(F)F)c(-c3c[nH]c4c3CCCN(C3CCC3)C4=O)n2)CN1 [CDK7_1226, 7-cyclobutyl-3-(2-{[(3S)-6,6-dimethylpiperidin-3-yl]amino}-5-(trifluoromethyl)py-rimidin-4-yl)-1H,4H,5H,6H,7H, 8H-pyrrolo[2,3-c]azepin-8-one] | > 2 µM
5 to 10 ×10⁻⁶ cm/s | 0.01 to 0.1 µM | 0.005 to 0.05 µM | > 0.2 µM | 0.01 to 0.1 µM | < 0.005 µM | – | – | – | – | Cc1nc(-c2cc(-c3nc(N[C@H]4CCCNC4)ncc3C(F)(F)F)c[nH]2)no1 [CDK7_1060, 4-[5-(5-methyl-1,2,4-oxadiazol-3-yl)-1H-pyrrol-3-yl]-N-[(3S)-piperidin-3-yl]-5-(trifluoromethyl)py-rimidin-2-amine] | 0.1 to 0.5 µM
< 1 ×10⁻⁶ cm/s | 0.1 to 1 µM | 0.005 to 0.05 µM | > 0.2 µM | 0.01 to 0.1 µM | < 0.005 µM | – | – | – | – | Cn1nnnc1-c1cc(-c2nc(N[C@H]3CCCNC3)ncc2C(F)(F)F)c[nH]1 [CDK7_999, 4-[5-(1-methyl-1H-1,2,3,4-tetrazol-5-yl)-1H-pyrrol-3-yl]-N-[(3S)-piperidin-3-yl]-5-(trifluoromethyl) pyrimidin-2-amine] | 0.5 to 2 µM
